Experimental data from patent publication US20250170114A1, “METHODS OF TREATMENT USING T-TYPE CALCIUM CHANNEL MODULATORS” (Praxis Precision Medicines, Inc., priority 2022, published 2025).

Test system: participants with ET
Assay: Phase 2 trial: treatment-emergent adverse events (TEAEs)
Type: in vivo
Excerpt: Part A of the clinical trial was open-label and assessed the safety and tolerability of the study drug, as well as the overall magnitude and pattern of change in ET severity.
Part B of the clinical trial consisted of both an open-label titration phase and a randomized, double-blind, placebo-controlled withdrawal phase. Part B assessed the safety and tolerability of the study drug, as well as the overall magnitude and pattern of change in ET severity and the duration of that effect. […] In the randomized, double-blind, placebo-controlled withdrawal phase, participants were either maintained on their final open-label dose or switched to placebo for an additional 14 days (Days 43 to 56).
Key safety measures included clinical laboratory evaluations, 12-lead ECG, C-SSRS, and vital signs. Key efficacy assessments included the TETRAS Performance subscale, TETRAS Upper Limb using accelerometry, CGI, and PGI-C. Blood samples were obtained for the determination of study drug plasma concentrations using a validated bioanalytical method and may also be used for method development and/or metabolite characterization.
On Day 1, participants received a 20 mg dose of study drug on an empty stomach (at least 1 hour before breakfast). Participants remained in a clinical setting under medical observation for approximately 6 hours. TETRAS Performance assessments were performed before dosing and 6 hours (±2) post-dose. For dosing on Day 2 through Day 41, participants were instructed to dose QAM at least 1 hour before breakfast at home. Participants continued taking study drug 20 mg QAM at home through Day 3. […] On Day 4, participants escalated to 40 mg QAM through Day 7, when they returned to the clinic for safety assessments and efficacy testing. On Day 8, participants escalated to 60 mg QAM through Day 14. […] On Day 15, participants escalated to 80 mg QAM through Day 21, when they returned to the clinic for safety assessments and efficacy testing. On Day 22, participants escalated to 100 mg QAM through Day 28. […] On Day 29, participants escalated to 120 mg QAM through Day 42, when they returned to the clinic for safety assessments and efficacy testing. The dose on Day 42 was taken in the clinic. On Day 35, participants received a telephone call from site staff to inquire about AEs and concomitant medications. On Day 41, participants completed a TETRAS Performance Upper Limb assessment via a telehealth visit. […] Participants could only change to a lower dose level once, and no dose changes were allowed to occur after Day 36.
In both phases, key safety measures included clinical laboratory evaluations, 12-lead ECG, C-SSRS, and vital signs. Key efficacy assessments included the TETRAS Performance subscale, TETRAS Upper Limb using accelerometry, CGI, PGI-C, TETRAS ADL Subscale, QUEST, BDI-II, and BAI. Blood samples were obtained for the determination of study drug and metabolite plasma concentrations.

[1] = Part A, Overall, N = 7, listed as study drug
[2] = Part B - RWD, study drug group, N = 6

## CC(C)(C)NC(=O)CN1CCC(CNC(=O)c2cc(F)cc(Cl)c2)CC1.Cl [Study drug]
Part A
  Drug-related TEAE dizziness: 3 participants
  participants experiencing TEAEs considered related to study drug: 57.1%
  participants who experienced at least 1 TEAE: 85.7%
Part A (overall), N = 7
  Any TEAE: 6 (85.7) n (%)
  Any TEAE leading to study drug withdrawal: 1 (14.3) n (%)
  Any TEAE related to disease under study: 1 (14.3) n (%)
  Any TEAE related to study drug: 4 (57.1) n (%)
  Any TEAE related to study procedure: 0 n (%)
  Any fatal SAEs: 0 n (%)
  Any serious adverse events: 0 n (%)
  TEAE Mild: 6 (85.7) n (%)
  TEAE Moderate: 1 (14.3) n (%)
  TEAE Severe: 0 n (%)
Part A and open-label titration phase of Part B together
  participants who experienced AEs leading to study drug withdrawal: 7 participants
Part A, 20 mg, N = 7
  Any TEAE: 6 (85.7) n (%)
  TEAE PT Dizziness: 4 (57.1) n (%)
  TEAE PT Headache: 3 (42.9) n (%)
  TEAE SOC Nervous System Disorders: 6 (85.7) n (%)
  TEAE SOC Psychiatric Disorders: 2 (28.6) n (%)
Part A, 40 mg, N = 6
  Any TEAE: 2 (33.3) n (%)
  TEAE PT Dizziness: 0 n (%)
  TEAE PT Headache: 1 (16.7) n (%)
  TEAE SOC Nervous System Disorders: 1 (16.7) n (%)
  TEAE SOC Psychiatric Disorders: 0 n (%)
Part A, Overall, N = 7
  Any TEAE: 6 (85.7) n (%)
  TEAE PT Dizziness: 4 (57.1) n (%)
  TEAE PT Headache: 3 (42.9) n (%)
  TEAE SOC Nervous System Disorders: 6 (85.6) n (%)
  TEAE SOC Psychiatric Disorders: 2 (28.6) n (%)
[1]
  Any TEAE leading to study drug withdrawal: 1 n (%)
  TEAE PT Dizziness: 4 n (%)
  TEAE PT Headache: 3 n (%)
Part B - OLT, N = 17
  Any TEAE: 15 n (%)
  Any TEAE leading to study drug withdrawal: 6 n (%)
  Any TEAE related to disease under study: 1 n (%)
  Any TEAE related to study drug: 12 n (%)
  Any TEAE related to study procedure: 0 n (%)
  Any fatal SAEs: 0 n (%)
  Any serious adverse events: 1 n (%)
  TEAE Mild: 13 n (%)
  TEAE Moderate: 7 n (%)
  TEAE Severe: 0 n (%)
[2]
  Any TEAE: 1 (16.7) n (%)
  Any TEAE leading to study drug withdrawal: 0 n (%)
  Any TEAE related to disease under study: 0 n (%)
  Any TEAE related to study drug: 0 n (%)
  Any TEAE related to study procedure: 0 n (%)
  Any fatal SAEs: 0 n (%)
  Any serious adverse events: 0 n (%)
  TEAE Mild: 1 (16.7) n (%)
  TEAE Moderate: 1 (16.7) n (%)
  TEAE Severe: 0 n (%)
Part B - RWD, study drug group, N = 6, listed as study drug
  Any TEAE: 1 n (%)
Part B, 20 mg, N = 17
  Any TEAE: 10 n (%)
  PT Cognitive disorder: 2 n (%)
  PT Constipation: 1 n (%)
  PT Dizziness: 4 n (%)
  PT Fatigue: 2 n (%)
  PT Insomnia: 1 n (%)
  SOC Gastrointestinal Disorders: 3 n (%)
  SOC General Disorders and Administration Site Conditions: 2 n (%)
  SOC Musculoskeletal and Connective Tissue Disorders: 1 n (%)
  SOC Nervous System Disorders: 8 n (%)
  SOC Psychiatric Disorders: 1 n (%)
  SOC Vascular Disorders: 0 n (%)
Part B, 40 mg, N = 15
  Any TEAE: 8 n (%)
  PT Cognitive disorder: 1 n (%)
  PT Constipation: 3 n (%)
  PT Dizziness: 1 n (%)
  PT Fatigue: 1 n (%)
  PT Insomnia: 2 n (%)
  SOC Gastrointestinal Disorders: 3 n (%)
  SOC General Disorders and Administration Site Conditions: 2 n (%)
  SOC Musculoskeletal and Connective Tissue Disorders: 0 n (%)
